Results reported in US10816552B2 (The Governing Council of the University of Toronto, priority 2014, dated 2020).

What was measured:
Jurkat cells = experiment: Metabolic toxicity assay (WST-1) in Jurkat cells; type: cell-based; conditions: Jurkat cells, 24 hour incubation, WST-1
Description: FIGS. 7A, B and C show a) and b) the cell proliferation rate of HCT116 cells as a function of time in the presence of various concentrations of the exemplary compound, Telox-2 (confluency analysis); and c) the metabolic toxicity of the exemplary compound, Telox-2, in Jurkat cells as measured by reduction of WST-1. Cells were incubated with Telox-2 for 24 hours prior to a 30 minute exposure to WST-1.
A 96 well clear fluorometer plate was loaded with 200 μL of Jurkat cells at a culture density of 1×10^6 cells per mL. To each well was added an appropriate amount of a stock solution of Telox/Telox2 in sterile DMSO to reach a desired concentration of Telox/Telox2 (1-1000 micromole). The concentration of DMSO was 1% in all wells. Cells were allowed to incubate for 24 h at 37° C. under normal atmosphere, after which 20 μL of a commercially available solution of WST-1 in PBS (Roche Diagnostics, product #05015944001) was added to each well (gentle pipetting evenly distributed the reagent throughout the well). Cells were allowed to incubate for a further 0.5 h at 37° C. under normal atmosphere, followed by subsequent measurement of the absorbance of each well at 450 nm using a TECAN Safire 2 plate reader. Data was background corrected vs. wells that contained cell growth media (without cells), an appropriate concentration of Telox2, a final concentration of DMSO=1%, and WST-1. Background correction wells were incubated in the same manner as described for cell-positive wells.
To investigate the organotellurium compounds of study as potential probe moieties for MC, the metabolic toxicity of the compounds was evaluated. Organotellurium compounds are often described as toxic, with aryl telluroethers showing cellular toxicity below 100 μM across a range of cell lines under different assay conditions.^9-11,38,39 The toxicity of compounds 8-11 was investigated in a commonly used Jurkat cell line after a 24 hour incubation using the metabolic probe WST-1 (Roche Diagnostics, Laval, Quebec) as per manufacturer's instructions. As compounds 8, 9 and 10 are expected to show degradation over the time frame of the toxicity assay, based on the NMR stability studies, these experiments show the relative toxicity of the compounds and their resulting degradation products (Table 2). […] The LD50 values of the exemplary organotellurium compounds of the present application provide promise for their use as activity based MC probes since the general MC experiment can be achieved at concentrations of ˜100 μM.^5

[1] = 1H NMR stability of Telox-2 in D2O (0.01% dDMSO); type: physicochemical
Source text: To investigate the stability of Telox-2 compared to Telox ^1H NMR spectra of Telox-2 were collected over a period of 1 week under biologically-relevant conditions (0.01% dDMSO in D2O).

[2] = UV-Vis stability of Telox-2 in aqueous buffer; type: physicochemical; conditions: 200 μM, 0.01% DMSO in phosphate-buffered saline
Description: Concentration of Telox-2=200 μM (0.01% DMSO in phosphate-buffered saline). The small spectrum identifies the unique absorptions of the tellurophene and nitroimidazole functionalities.
An orthogonal stability assay using UV-Vis spectroscopy was performed to corroborate the NMR stability findings (FIG. 6). In this assay, UV-Vis spectra of Telox-2 were recorded at a fixed concentration in aqueous buffer over a period of 3 days. Loss of either heterocycle, tellurophene or nitroimidazole, as a result of degradation would be expected to cause a decrease in absorbance at 282 and/or 325 nm respectively.

[3] = Empirical log P by UV-Vis assay; type: physicochemical; conditions: aqueous buffer; UV-Vis assay conditions
Solubility observations = type: physicochemical
[4] = system: NADPH:cytochrome P450 oxidoreductase (POR); type: cell-based; conditions: mutant HCT116, 10 μM, 3 hours
Description: FIGS. 10A-C show a) the mass cytometry histograms of wild-type HCT116 cells incubated with 10 μM of the exemplary compound, Telox-2, for 3 hours in atmosphere containing either 21% O2, 1% O2, 0.2% O2, or <0.02% O2); b) the mass cytometry histograms of mutant HCT116 cells overexpressing POR incubated with 10 μM Telox-2 for 3 hours in atmosphere containing either 21% O2, 1% O2, 0.2% O2 or <0.02% O2; and c) the mass cytometry histograms of mutant HCT116 cells unable to express POR incubated with 10 μM Telox-2 for 3 hours in atmosphere containing either 21% O2, 1% O2, 0.2% O2, or <0.02% O2.
To confirm the reductive metabolism of Telox-2 it investigated using mutant HCT116 cell lines that either overexpressed NADPH:cytochrome P450 oxidoreductase (POR) or had this enzyme knocked out (FIG. 10 part b).

HCT116 cells = experiment: Competitive labelling with pimonidazole (mass cytometry); type: cell-based; conditions: HCT116, Telox-2 10 μM, near-anoxic
Description: Concentration Telox-2=10 μM. The absolute ^130Te signal was measured using mass cytometry.
HCT 116 cells (see sections i and ii) were incubated in media containing Telox or Telox2 (100 μM, added as a neat solution in sterile DMSO; final [DMSO]=0.1%) for 3 hours under atmosphere containing an appropriate concentration of O2. Following incubation, the media was removed, cells were washed with sterile PBS, and then separated from the incubation plate via trypsinization (37° C., 10 min) and gentle scraping. The cell suspension was pelleted and resuspended in PBS containing β-ME (1.0 mL, 100 mM). Cells were pelleted, resuspended in PBS (900 μL, no β-ME), and fixed with formaldehyde (100 μL, 37% solution) for 25 minutes. Following fixation, cells were pelleted, resuspended in PBS containing β-ME (1.0 mL, 100 mM), and pelleted once again. Cells were then resuspended in PBS ([…], no β-ME) and incubated with either the Ir-containing nucleic acid intercalator (hypoxic cells) or the Rh containing nucleic acid intercalator (normoxic cells) (10 μL, 100 μM solution in sterile PBS) for 20 minutes. Cells were then pelleted and resuspended in PBS (1.0 mL, no β-ME) twice. Cell pellets were then resuspended in PBS containing ^151/153EU beads (1/10 dilution of CyTOF® calibration beads, DVS Sciences, 1.0-2.5 mL depending on pellet size). […]

Structure (SMILES): O=[N+]([O-])c1nccn1CCc1ccc[te]1 [Telox-2, 2-nitro-1-(2-(tellurophen-2-yl)ethyl)-1H-imidazole]
- LD50 (metabolic toxicity) (Jurkat cells): ~270 µM
- degradation by 1H NMR over 1 week ([1]; 0.01% dDMSO in D2O, 1 week, 200 μM): no observable degradation
- aggregate or micelle formation in aqueous solution (1H NMR peak broadening) ([1]; high concentrations (2 mM)): does not form aggregates or micelles
- change in absorbance at 282 and/or 325 nm over 3 days [2]: No change in absorbance
- logP [3]: 1.3
- solubility, in words (Solubility observations): unusually high water solubility
- labelling in POR-knockout cell line compared to wild type [4]: nearly identical to that in the wild type
- labelling in cell line overexpressing POR compared to wild type [4]: greatly enhanced labelling
- labelling under competitive conditions with pimonidazole (HCT116 cells): reduced in a (pimonidazole) dose-dependent manner
